Measurements reported in BindingDB's records for doi:10.1021/jm00073a012 (Glaxo Group Research, 1993).
pIC50: −log10 of the molar value.

The compounds below were run against T1, Dimer of Gag-Pol polyprotein [489-587] (Human immunodeficiency virus 1, UniProt P12497) (assay: Protease Inhibition Assay). Settings: pH 6; 37 °C.
T1 construct: 489-587
Procedure: IC50 values were obtained by assaying the enzyme against the synthetic substrate peptide KQGTVSFNFPQIT, which was tritiated at the proline residue, and then was coupled via its N-terminal lysine to an Affi-gel bead mixture. The assay was performed in 96-well microtiter filtration plates. The plates containing HIV protease and radiolabeled substrate beads were incubated with or without inhibitor. After filtration, radioactivity was measured using an LKB 1205 Microbeta liquid scintillation counter. IC50 determinations were performed in duplicate at each concentration with mean values used for data analysis.

`C[C@H](Cc1ccccc1)NC(=O)[C@@H]1N[C@@H]([C@H](NC(=O)Cc2ccccc2)C(=O)NCc2ccccc2)SC1(C)C` [(2R,4S)-2-[(R)-(benzylcarbamoyl)(1-phenylacetamido)methyl]-5,5-dimethyl-N-[(2R)-1-phenylpropan-2-yl]-1,3-thiazolidine-4-carboxamide] and `C[C@@H](Cc1ccccc1)NC(=O)[C@@H]1N[C@@H]([C@H](NC(=O)Cc2ccccc2)C(=O)NCc2ccccc2)SC1(C)C` [(2R,4S)-2-[(R)-(benzylcarbamoyl)(1-phenylacetamido)methyl]-5,5-dimethyl-N-[(2S)-1-phenylpropan-2-yl]-1,3-thiazolidine-4-carboxamide] cannot be ordered by pIC50: less than 3.74 for the first, less than 3.74 for the second.

`CCC(C)C(CO)NC(=O)[C@@H]1N[C@@H]([C@H](NC(=O)Cc2ccccc2)C(=O)NCc2ccccc2)SC1(C)C` (stereo partly drawn) [(2R,4S)-2-[(R)-(benzylcarbamoyl)(1-phenylacetamido)methyl]-N-(1-hydroxy-3-methylpentan-2-yl)-5,5-dimethyl-1,3-thiazolidine-4-carboxamide] and `CC(C)[C@H](CO)NC(=O)[C@@H]1N[C@@H]([C@H](NC(=O)Cc2ccccc2)C(=O)NCc2ccccc2)SC1(C)C` [(2R,4S)-2-[(R)-(benzylcarbamoyl)(1-phenylacetamido)methyl]-N-[(2R)-1-hydroxy-3-methylbutan-2-yl]-5,5-dimethyl-1,3-thiazolidine-4-carboxamide] cannot be ordered by pIC50: less than 6.27 for the first, less than 5.33 for the second.

Compared with `CC1(C)S[C@H]([C@H](NC(=O)Cc2ccccc2)C(=O)NCc2ccccc2)N[C@H]1C(=O)NCCNC(=O)[C@@H]1N[C@@H]([C@H](NC(=O)Cc2ccccc2)C(=O)NCc2ccccc2)SC1(C)C` [(2R,4S)-2-[(R)-(benzylcarbamoyl)(1-phenylacetamido)methyl]-N-(2-{[(2R,4S)-2-[(R)-(benzylcarbamoyl)(1-phenylacetamido)methyl]-5,5-dimethyl-1,3-thiazolidin-4-yl]formamido}ethyl)-5,5-dimethyl-1,3-thiazolidine-4-carboxamide], `CC1(C)S[C@H]([C@H](NC(=O)Cc2ccccc2)C(=O)NCc2ccccc2)N[C@H]1C(=O)N[C@H](CO)Cc1ccccc1` [(2R,4S)-2-[(R)-(benzylcarbamoyl)(1-phenylacetamido)methyl]-N-[(2S)-1-hydroxy-3-phenylpropan-2-yl]-5,5-dimethyl-1,3-thiazolidine-4-carboxamide] is lower in pIC50: 9.05 for the first, less than 3.77 for the second.

`CC(C)C[C@H](CO)NC(=O)[C@@H]1N[C@@H]([C@H](NC(=O)Cc2ccccc2)C(=O)NCc2ccccc2)SC1(C)C` [(2R,4S)-2-[(R)-(benzylcarbamoyl)(1-phenylacetamido)methyl]-N-[(2R)-1-hydroxy-4-methylpentan-2-yl]-5,5-dimethyl-1,3-thiazolidine-4-carboxamide] and `C[C@H](CO)NC(=O)[C@@H]1N[C@@H]([C@H](NC(=O)Cc2ccccc2)C(=O)NCc2ccccc2)SC1(C)C` [(2R,4S)-2-[(R)-(benzylcarbamoyl)(1-phenylacetamido)methyl]-N-[(2R)-1-hydroxypropan-2-yl]-5,5-dimethyl-1,3-thiazolidine-4-carboxamide] cannot be ordered by pIC50: less than 5.34 for the first, less than 4.70 for the second.

Compound `CC1(C)S[C@H]([C@H](NC(=O)Cc2ccccc2)C(=O)NCc2ccccc2)N[C@H]1C(N)=O` [[2R-[2a(R*),4B]]-4-Carbamoyl-5,5-dimethyl-a-[(phenylacetyl)amino]-N-(phenylmethyl)-2-thiazolidineacetamide] has a pIC50 of less than 3.64.
